Each compound was assayed against T1, chimeric human H3 receptor (Homo sapiens, UniProt Q9Y5N1) (assay: Chimeric human H3 receptor GTP binding assay (agonist-stimulated GTP-gamma35S binding, Example 7)). Conditions: Table I; P2 membranes of Sf9 cells, 1 μM histamine as agonist, Ki from IC50 by Cheng-Prusoff.
T1 construct: made in house; host or cells: Sf9 insect cells (baculovirus); P2 membrane preparation
Type: biochemical
Procedure, shortened: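 Sf9 membranes co-expressing chimeric human H3 receptor and heterotrimeric G-protein, 35 μg/tube, in pH 7.4 Tris buffer with 10 μM GDP. Test compounds (10^−10–10^−6 M) competed against 1 μM histamine, […] GTP-gamma35S, 60 min at room temperature. Filter-bound radioactivity counted; IC50 converted to Ki by Cheng-Prusoff. Agonism/inverse agonism tested without histamine (EC50).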

T1 sequence (Q9Y5N1 with tags, fused parts or gaps): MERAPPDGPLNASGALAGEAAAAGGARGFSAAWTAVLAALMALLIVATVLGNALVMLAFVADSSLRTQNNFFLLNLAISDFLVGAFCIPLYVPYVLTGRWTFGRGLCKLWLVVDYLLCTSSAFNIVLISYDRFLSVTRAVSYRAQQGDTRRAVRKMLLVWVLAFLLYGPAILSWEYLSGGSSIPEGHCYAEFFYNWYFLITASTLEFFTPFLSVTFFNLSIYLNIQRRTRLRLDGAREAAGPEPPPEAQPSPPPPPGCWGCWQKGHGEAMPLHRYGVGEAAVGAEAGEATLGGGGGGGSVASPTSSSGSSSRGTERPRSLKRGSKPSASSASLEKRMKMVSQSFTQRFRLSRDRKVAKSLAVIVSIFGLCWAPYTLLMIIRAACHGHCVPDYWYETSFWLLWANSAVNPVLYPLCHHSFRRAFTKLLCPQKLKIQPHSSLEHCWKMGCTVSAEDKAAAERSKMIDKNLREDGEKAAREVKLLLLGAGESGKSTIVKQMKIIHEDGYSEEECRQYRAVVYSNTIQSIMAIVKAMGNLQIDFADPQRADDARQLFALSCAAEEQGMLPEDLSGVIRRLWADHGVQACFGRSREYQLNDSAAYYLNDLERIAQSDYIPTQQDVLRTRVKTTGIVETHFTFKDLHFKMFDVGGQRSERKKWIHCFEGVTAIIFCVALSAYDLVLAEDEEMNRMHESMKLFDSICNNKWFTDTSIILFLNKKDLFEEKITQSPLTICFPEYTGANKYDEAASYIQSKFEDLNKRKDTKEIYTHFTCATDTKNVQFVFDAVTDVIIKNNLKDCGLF

Ki, < 1000 nM:
O=C(CN1CCc2ncccc2C1)N1CCN(C2CCC2)CC1 [Compound 65, 6-[2-(4-cyclobutylpiperazin-1-yl)-2-oxoethyl]-5,6,7,8-tetrahydro-1,6-naphthyridine]
COc1cc2c(cc1OC)CN(CC(=O)N1CCN(C3CCC3)CC1)CC2 [Compound 48, 2-[2-(4-cyclobutylpiperazin-1-yl)-2-oxoethyl]-6,7-dimethoxy-1,2,3,4-tetrahydroisoquinoline]
CC(=O)c1ccc(-c2cnc3n2CCN(CC(=O)N2CCN(C4CCC4)CC2)C3)cc1 [Compound 82, 1-(4-{7-[2-(4-cyclobutylpiperazin-1-yl)-2-oxoethyl]-5,6,7,8-tetrahydroimidazo[1,2-a]pyrazin-3-yl}phenyl)ethanone]
COc1cc2c(cc1OC)CN(CC(=O)N1CCN(C(C)C)CC1)CC2 [Compound 49, 2-[2-(4-isopropylpiperazin-1-yl)-2-oxoethyl]-6,7-dimethoxy-1,2,3,4-tetrahydroisoquinoline]
O=C(CN1CCn2c(Br)cnc2C1)N1CCN(C2CCC2)CC1 [Compound 81, 3-bromo-7-[2-(4-cyclobutylpiperazin-1-yl)-2-oxoethyl]-5,6,7,8-tetrahydroimidazo[1,2-a]pyrazine]
Cc1noc(C)c1-c1ccc2c(c1)CCN(CC(=O)N1CCN(C3CCC3)CC1)C2 [Compound 68, 2-[2-(4-cyclobutylpiperazin-1-yl)-2-oxoethyl]-6-(3,5-dimethylisoxazol-4-yl)-1,2,3,4-tetrahydroisoquinoline]

Same assay, conditions: Table II "Ki", symbol *; assay of Example 7

Ki, < 1000 nM:
O=C(CN1CCc2nc(NCC3CC3)ccc2C1)N1CCN(C2CCC2)CC1 [Compound 650, 6-[2-(4-cyclobutylpiperazin-1-yl)-2-oxoethyl]-N-(cyclopropylmethyl)-5,6,7,8-tetrahydro-1,6-naphthyridin-2-amine]
Cc1cccc(-c2ccc3c(c2)CCN(CC(=O)N2CCN(C4CCC4)CC2)C3)n1 [Compound 628, 2-[2-(4-cyclobutylpiperazin-1-yl)-2-oxoethyl]-6-(6-methylpyridin-2-yl)-1,2,3,4-tetrahydroisoquinoline]
CN(C)Cc1ccccc1-c1ccc2c(c1)CCN(CC(=O)N1CCN(C3CCC3)CC1)C2 [Compound 640, 1-(2-{2-[2-(4-cyclobutylpiperazin-1-yl)-2-oxoethyl]-1,2,3,4-tetrahydroisoquinolin-6-yl}phenyl)-N,N-dimethylmethanamine]

Same assay, conditions: Table II; "*" = Ki in assay of Example 7 less than 1 micromolar

Ki, < 1000 nM:
O=C(CN1CCc2cc(-c3cscn3)ccc2C1)N1CCN(C2CCC2)CC1 [Compound 119, 2-[2-(4-cyclobutylpiperazin-1-yl)-2-oxoethyl]-6-(1,3-thiazol-4-yl)-1,2,3,4-tetrahydroisoquinoline]
CCC1CCC[C@H]2CN(C(=O)CN3CCc4cc(C(C)=O)ccc4C3)CCN12 (stereo in doubt) [Compound 163, 1-{2-[2-(6-ethyloctahydro-2H-pyrido[1,2-a]pyrazin-2-yl)-2-oxoethyl]-1,2,3,4-tetrahydroisoquinolin-6-yl}ethanone]
O=C(CN1CCc2ccc(-c3cncnc3)cc2CC1)N1CCN(C2CCC2)CC1 [Compound 104, 3-[2-(4-cyclobutylpiperazin-1-yl)-2-oxoethyl]-7-pyrimidin-5-yl-2,3,4,5-tetrahydro-1H-3-benzazepine]
CN(C)c1ncc2c(n1)CCN(CC(=O)N1CCN(C3CCC3)CC1)C2 [Compound 246, 6-[2-(4-cyclobutylpiperazin-1-yl)-2-oxoethyl]-N,N-dimethyl-5,6,7,8-tetrahydropyrido[4,3-d]pyrimidin-2-amine]
CNC(=O)c1ccc2c(c1)CCN(CC(=O)N1CCN(C3CCC3)CC1)C2 [Compound 85, 2-[2-(4-cyclobutylpiperazin-1-yl)-2-oxoethyl]-N-methyl-1,2,3,4-tetrahydroisoquinoline-6-carboxamide]
O=C(CN1CCc2nc(-c3ccccc3)ncc2C1)N1CCN(C2CCC2)CC1 [Compound 247, 6-[2-(4-cyclobutylpiperazin-1-yl)-2-oxoethyl]-2-phenyl-5,6,7,8-tetrahydropyrido[4,3-d]pyrimidine]
Cc1c2c(nn1-c1ccc(Br)cn1)CCN(CC(=O)N1CCN(C3CCC3)CC1)C2 [Compound 273, 2-(5-bromopyridin-2-yl)-5-[2-(4-cyclobutylpiperazin-1-yl)-2-oxoethyl]-3-methyl-4,5,6,7-tetrahydro-2H-pyrazolo[4,3-c]pyridine]
CC(C)N1CCN(C(=O)CN2CCc3[nH]c(=O)ccc3C2)CC1 [Compound 135, 6-[2-(4-isopropylpiperazin-1-yl)-2-oxoethyl]-5,6,7,8-tetrahydro-1,6-naphthyridin-2(1H)-one]
CCC1CCC[C@H]2CN(C(=O)CN3CCc4cc(-n5cccn5)ccc4C3)CCN12 (stereo in doubt) [Compound 167, 6-ethyl-2-{[6-(1H-pyrazol-1-yl)-3,4-dihydroisoquinolin-2(1H)-yl]acetyl}octahydro-2H-pyrido[1,2-a]pyrazine]
CC(=O)Cc1ccc2c(c1)CCN(CC(=O)N1CCN(C3CCC3)CC1)C2 [Compound 249, 1-{2-[2-(4-cyclobutylpiperazin-1-yl)-2-oxoethyl]-1,2,3,4-tetrahydroisoquinolin-6-yl}acetone]
O=C(CN1CCc2cc(-c3ccc4nccn4c3)ccc2C1)N1CCN(C2CCC2)CC1 [Compound 231, 2-[2-(4-cyclobutylpiperazin-1-yl)-2-oxoethyl]-6-imidazo[1,2-a]pyridin-6-yl-1,2,3,4-tetrahydroisoquinoline]
N#Cc1ccc(-n2ncc3c2CCN(CC(=O)N2CCN(C4CCC4)CC2)C3)nn1 [Compound 215, 6-{5-[2-(4-cyclobutylpiperazin-1-yl)-2-oxoethyl]-4,5,6,7-tetrahydro-1H-pyrazolo[4,3-c]pyridin-1-yl}pyridazine-3-carbonitrile]
O=C(CN1CCc2cc(-c3cnccn3)ccc2C1)N1CCN(C2CCC2)CC1 [Compound 128, 2-[2-(4-cyclobutylpiperazin-1-yl)-2-oxoethyl]-6-pyrazin-2-yl-1,2,3,4-tetrahydroisoquinoline]
CC1CCCC1N1CCN(C(=O)CN2CCc3cc(-c4cccnn4)ccc3C2)CC1 (centres unmarked) [Compound 191, 2-{2-[4-(2-methylcyclopentyl)piperazin-1-yl]-2-oxoethyl}-6-pyridazin-3-yl-1,2,3,4-tetrahydroisoquinoline]
Cc1ccc(-n2cc3c(n2)CCN(CC(=O)N2CCN(C4CCC4)CC2)C3)nn1 [Compound 200, 5-[2-(4-cyclobutylpiperazin-1-yl)-2-oxoethyl]-2-(6-methylpyridazin-3-yl)-4,5,6,7-tetrahydro-2H-pyrazolo[4,3-c]pyridine]

Same assay, conditions: Table II; assay of Example 7

Ki, < 1000 nM:
O=C(CN1CCc2nc(N3CCCC(C(F)(F)F)C3)ccc2C1)N1CCN(C2CCC2)CC1 (centres unmarked) [Compound 682, 6-[2-(4-cyclobutylpiperazin-1-yl)-2-oxoethyl]-2-[3-(trifluoromethyl)piperidin-1-yl]-5,6,7,8-tetrahydro-1,6-naphthyridine]

Same assay, conditions: assay of Example 7; "*" in Ki of Table II

Ki, < 1000 nM:
CC(C)N1CCN(C(=O)CN2CCc3cc(-c4ccc(S(C)(=O)=O)cc4)ccc3C2)CC1 [Compound 382, 2-[2-(4-isopropylpiperazin-1-yl)-2-oxoethyl]-6-[4-(methylsulfonyl)phenyl]-1,2,3,4-tetrahydroisoquinoline]
O=C(CN1CCc2nc(-c3cccc(C(F)(F)F)c3)sc2C1)N1CCN(C2CCC2)CC1 [Compound 372, 5-[2-(4-cyclobutylpiperazin-1-yl)-2-oxoethyl]-2-[3-(trifluoromethyl)phenyl]-4,5,6,7-tetrahydro[1,3]thiazolo [5,4-c]pyridine]
COc1ccc(-c2ccc(-c3nc4c(s3)CN(CC(=O)N3CCN(C5CCC5)CC3)CC4)cc2)cc1 [Compound 321, 5-[2-(4-cyclobutylpiperazin-1-yl)-2-oxoethyl]-2-(4′-methoxybiphenyl-4-yl)-4,5,6,7-tetrahydro[1,3]thiazolo [5,4-c]pyridine]
CS(=O)(=O)c1cccc(-c2ccc3c(c2)CCN(CC(=O)N2CCN(C4CCCCC4)CC2)C3)c1 [Compound 395, 2-[2-(4-cyclohexylpiperazin-1-yl)-2-oxoethyl]-6-[3-(methylsulfonyl)phenyl]-1,2,3,4-tetrahydroisoquinoline]
O=C(CN1CCc2nn(-c3ncc(Br)cn3)cc2C1)N1CCN(C2CCC2)CC1 [Compound 287, 2-(5-bromopyrimidin-2-yl)-5-[2-(4-cyclobutylpiperazin-1-yl)-2-oxoethyl]-4,5,6,7-tetrahydro-2H-pyrazolo[4,3-c]pyridine]
O=C(CN1CCc2nc(-c3c(F)cccc3F)sc2C1)N1CCN(C2CCC2)CC1 [Compound 353, 5-[2-(4-cyclobutylpiperazin-1-yl)-2-oxoethyl]-2-(2,6-difluorophenyl)-4,5,6,7-tetrahydro[1,3]thiazolo [5,4-c]pyridine]
Cc1cc(-c2nc3c(s2)CN(CC(=O)N2CCN(C4CCC4)CC2)CC3)ccc1F [Compound 303, 5-[2-(4-cyclobutylpiperazin-1-yl)-2-oxoethyl]-2-(4-fluoro-3-methylphenyl)-4,5,6,7-tetrahydro[1,3]thiazolo [5,4-c]pyridine]

— patent US20110082130A1 (LIGAND PHARMACEUTICALS, INC., priority 2006, published 2011)
